Source: patent US12209096B2, “Compounds and compositions for inducing chondrogenesis” (NOVARTIS AG, priority 2017, dated 2025)
Where two headings read alike, the source gives them in different places.

Test system: NHACs
Test: calcium flux assay
Type: cell-based, human
Conditions: for Emax: read-out: (A) % Efficacy
Procedure: NHACs were plated in 1536 Greiner plate at 2000 cells/well in 4 ul volume. 24 hours later, 4 ul of Calcium 5 dye solution (Hank's Balanced Salt/HEPES buffer containing 5 mM of Probenecid) was then added and incubated for 1 hour at room temperature. Fluorescence readings at excitation wavelength of 470-495 nm and emission wavelength of 515-575 nm were done using FLIPR high-throughput screening system (Molecular Devices, Sunnyvale, CA). The test compound was then added to each well at the indicated dose. Signal was measured prior compound dispense and after using a first interval of 1 second for 60 reads and second interval of 3 second for 20 reads. Data was analyzed using Molecular Devices ScreenWorks® Software.

`O=C(Nc1ccc(Cl)c(Cl)c1)[C@@H]1[C@H]2O[C@H]([C@@H]3C[C@@H]32)[C@H]1c1ccnc(F)c1F` (single isomer, unassigned) [Example 122b] was tested, and the EC50 (Homo sapiens) was 17 µM and the Emax (Homo sapiens) was 217%.

Compound `O=C(Nc1ccc(Cl)c(Cl)c1)[C@@H]1[C@@H](c2cc(F)ncc2F)[C@H]2O[C@@H]1C[C@@H]2O` [Example 147, (1R,2R,3S,4R,5S)—N-(3,4-dichlorophenyl)-3-(2,5-difluoropyridin-4-yl)-5-hydroxy-7-oxabicyclo[2.2.1]heptane-2-carboxamide] has an EC50 (Homo sapiens) of 28 µM and an Emax (Homo sapiens) of 284%.

Compound `Cc1cc([C@H]2[C@H]3O[C@H](C[C@@H]3O)[C@@H]2C(=O)Nc2ccc(-c3ccccc3F)c(Cl)c2)ccn1` [Example 78, (1R,2R,3S,4R,5S)—N-(2-chloro-2′-fluoro-[1,1′-biphenyl]-4-yl)-5-hydroxy-3-(2-methylpyridin-4-yl)-7-oxabicyclo[2.2.1]heptane-2-carboxamide] has an EC50 (Homo sapiens) of over 50 µM and an Emax (Homo sapiens) of 70%.

Work on `O=C(Nc1cnc(Cl)c(Cl)c1)[C@@H]1[C@@H]2O[C@@H]([C@H]3C[C@H]32)[C@@H]1c1ccncc1` (racemic) [Example 43, rac-(1S,2S,4R,5R,6S,7S)—N-(5,6-dichloropyridin-3-yl)-7-(pyridin-4-yl)-8-oxatricyclo[3.2.1.0^2,4]octane-6-carboxamide] yielded an EC50 (Homo sapiens) of over 50 µM and an Emax (Homo sapiens) of 168%.

For `O=C(Nc1ccc(Cl)c(Cl)c1)[C@H]1[C@@H](c2ccnc(F)c2)[C@H]2O[C@@H]1C[C@@H]2F` [Example 22, (1R,2S,3S,4R,5S)-N-(3,4-dichlorophenyl)-5-fluoro-3-(2-fluoropyridin-4-yl)-7-oxabicyclo[2.2.1]heptane-2-carboxamide], the EC50 (Homo sapiens) was 4.2 µM and the Emax (Homo sapiens) was 128%.

Work on `CN[C@@H]1C[C@H]2O[C@@H]1[C@H](c1ccnc(C)c1)[C@H]2C(=O)Nc1ccc(Cl)c(Cl)c1` [Example 167, (1R,2R,3S,4R,5R)—N-(3,4-dichlorophenyl)-5-(methylamino)-3-(2-methylpyridin-4-yl)-7-oxabicyclo[2.2.1]heptane-2-carboxamide] yielded an EC50 (Homo sapiens) of 6.9 µM and an Emax (Homo sapiens) of 83%.

Compound `COc1cc([C@H]2[C@H]3O[C@H]([C@@H]4C[C@@H]43)[C@@H]2C(=O)Nc2ccc(Cl)c(Cl)c2)ccn1` [Example 118, (1S,2S,4R,5R,6R,7S)—N-(3,4-dichlorophenyl)-7-(2-methoxypyridin-4-yl)-8-oxatricyclo[3.2.1.0^2,4]octane-6-carboxamide] has an EC50 (Homo sapiens) of 8.2 µM and an Emax (Homo sapiens) of 118%.

Compound `Cc1ncc([C@H]2[C@H]3O[C@H]([C@@H]4C[C@@H]43)[C@@H]2C(=O)Nc2ccc(Cl)c(Cl)c2)cn1` [Example 135, (1S,2S,4R,5R,6R,7S)—N-(3,4-dichlorophenyl)-7-(2-methylpyrimidin-5-yl)-8-oxatricyclo[3.2.1.0^2,4]octane-6-carboxamide] has an EC50 (Homo sapiens) of 16 µM and an Emax (Homo sapiens) of 237%.

`O=C(Nc1cnc(Cl)c(Cl)c1)[C@@H]1[C@@H](c2ccnc(F)c2F)[C@H]2O[C@@H]1C[C@@H]2O` [Example 91, (1R,2R,3S,4R,5S)—N-(5,6-dichloropyridin-3-yl)-3-(2,3-difluoropyridin-4-yl)-5-hydroxy-7-oxabicyclo[2.2.1]heptane-2-carboxamide] gave an EC50 (Homo sapiens) of 4.4 µM and an Emax (Homo sapiens) of 66%.

`O=C(Nc1ccc(Cl)c(Cl)c1)[C@H]1[C@@H](c2cc(F)ncc2F)[C@H]2O[C@@H]1C[C@@H]2O` [Example 58, (1R,2S,3S,4R,5S)—N-(3,4-dichlorophenyl)-3-(2,5-difluoropyridin-4-yl)-5-hydroxy-7-oxabicyclo[2.2.1]heptane-2-carboxamide] showed an EC50 (Homo sapiens) of over 50 µM and an Emax (Homo sapiens) of 0%.

Compound `O=C(Nc1cnc(Cl)c(Cl)c1)[C@@H]1[C@@H]2O[C@@H]([C@H]3C[C@H]32)[C@@H]1c1ccnc(F)c1F` [Example 32, (1S,2S,4R,5R,6S,7S)—N-(5,6-dichloropyridin-3-yl)-7-(2,3-difluoropyridin-4-yl)-8-oxatricyclo[3.2.1.0^2,4]octane-6-carboxamide] has an EC50 (Homo sapiens) of 13 µM and an Emax (Homo sapiens) of 143%.

In the case of `O=C(Nc1ccc(Cl)c(Cl)c1)[C@H]1[C@@H](c2cccc(C(F)(F)F)n2)[C@H]2O[C@@H]1C[C@@H]2O` [Example 50, (1R,2S,3S,4R,5S)—N-(3,4-dichlorophenyl)-5-hydroxy-3-(6-(trifluoromethyl)pyridin-2-yl)-7-oxabicyclo[2.2.1]heptane-2-carboxamide], the EC50 (Homo sapiens) is reported as 21 µM and the Emax (Homo sapiens) is reported as 308%.

`O=C(Nc1cnc(Cl)c(Cl)c1)[C@H]1[C@@H](c2ccncc2)[C@H]2O[C@@H]1C[C@@H]2O` (single isomer, unassigned) [Example 10a] was tested, and the EC50 (Homo sapiens) was over 50 µM and the Emax (Homo sapiens) was 55%.

`Cc1cc([C@H]2[C@H]3O[C@H](C[C@H]3F)[C@@H]2C(=O)Nc2cnc(Cl)c(Cl)c2)ccn1` [Example 98, (1R,2R,3S,4R,5R)—N-(5,6-dichloropyridin-3-yl)-5-fluoro-3-(2-methylpyridin-4-yl)-7-oxabicyclo[2.2.1]heptane-2-carboxamide] showed an EC50 (Homo sapiens) of 21 µM and an Emax (Homo sapiens) of 404%.

For “(1S,2S,4R,5R,6S,7S)-N-(3,4-dichlorophenyl)-7-(2-methylpyridin-4-yl)-8-oxatricyclo[3.2.1.0^2,4]octane-6-carboxamide [Example 23]”, the “(A) % Efficacy” value was 54% and the EC50 was over 50 µM.

`O=C(Nc1ccc(Cl)c(Cl)c1)[C@H]1[C@@H](c2ccncc2)[C@H]2O[C@@H]1C[C@@H]2O` (racemic) [Example 47, rac-(1R,2S,3S,4R,5S)—N-(3,4-dichlorophenyl)-5-hydroxy-3-(pyridin-4-yl)-7-oxabicyclo[2.2.1]heptane-2-carboxamide] was tested, and the EC50 (Homo sapiens) was 7.8 µM and the Emax (Homo sapiens) was 38%.

For `Cc1cc([C@@H]2[C@@H]3O[C@@H]([C@H]4C[C@H]43)[C@@H]2C(=O)Nc2ccc(Cl)c(Cl)c2)ccn1` (single isomer, unassigned) [Example 23b], the EC50 (Homo sapiens) was over 50 µM and the Emax (Homo sapiens) was 0%.

Work on `O=C(Nc1ccc(Cl)c(Cl)c1)[C@@H]1[C@@H](c2ccnc(F)c2)[C@H]2O[C@@H]1C[C@H]2NCCO` [Example 173, (1R,2R,3S,4R,5R)—N-(3,4-dichlorophenyl)-3-(2-fluoropyridin-4-yl)-5-((2-hydroxyethyl)amino)-7-oxabicyclo[2.2.1]heptane-2-carboxamide] yielded an EC50 (Homo sapiens) of 27 µM and an Emax (Homo sapiens) of 54%.

In the case of `COc1cc([C@@H]2[C@@H]3O[C@@H](C[C@H]3O)[C@@H]2C(=O)Nc2ccc(Cl)c(Cl)c2)ccn1` (single isomer, unassigned) [Example 49b], the EC50 (Homo sapiens) is reported as over 50 µM and the Emax (Homo sapiens) is reported as 31%.

With `Cc1cc([C@H]2[C@H]3O[C@H](C[C@H]3F)[C@@H]2C(=O)Nc2cccc(OC(F)(F)F)c2)ccn1` [Example 99, (1R,2R,3S,4R,5R)-5-fluoro-3-(2-methylpyridin-4-yl)-N-(3-(trifluoromethoxy)phenyl)-7-oxabicyclo[2.2.1]heptane-2-carboxamide] the EC50 (Homo sapiens) was 18 µM and the Emax (Homo sapiens) was 383%.

`Cc1cc([C@H]2[C@H]3O[C@H](C[C@@H]3O)[C@@H]2C(=O)Nc2ccc(Cl)c(Cl)c2)ccn1` (racemic) [Example 77, rac-(1R,2R,3S,4R,5S)—N-(3,4-dichlorophenyl)-5-hydroxy-3-(2-methylpyridin-4-yl)-7-oxabicyclo[2.2.1]heptane-2-carboxamide] was tested, and the EC50 (Homo sapiens) was 26 µM and the Emax (Homo sapiens) was 49%.

Work on `O=C(Nc1cnc(Cl)c(Cl)c1)[C@@H]1[C@@H]2O[C@@H]([C@H]3C[C@H]32)[C@@H]1c1ccncc1` (single isomer, unassigned) [Example 43b] yielded an EC50 (Homo sapiens) of over 50 µM and an Emax (Homo sapiens) of 3%.
